Results as given in paper PMC12472597, “Pan-Amyloid Reactive Peptides p5+14 and p5R Exhibit Specific Charge-Dependent Binding to Glycosaminoglycans” (Pharmaceuticals, 2025).
pEC50: −log10 of the molar value. “Also recorded” adds a separate entry of the source. No end group written: not given here.

Columns and labels:
[1] = cited from earlier work
From the text: The concept of pan-amyloid reactive agents is not a new one. […] The binding sites are recurring with defined periodicity, which results in Congo red birefringence when stained amyloid is viewed under cross polarized illumination,a and a red shift in the emission maximum and increase in the quantum yield when thiofl ...

[2] = clinical studies (NCT02603172); cited from earlier work
Description: The impact of accessory proteins in amyloid deposits remains unclear; however, some components have been evaluated extensively. Serum amyloid P component, for example, was thought to stabilize the amyloid pathology and render it resistant to proteolysis and immunological clearance. This hypothesis was tested using a small molecule drug (miridesap) that crosslinks SAP, thereby clearing it from amyloid deposits, potentially leading to their clearance. […] This was ...

[3] = GAG array apparent EC50, HS (GAG46); assay type: binding; settings: biotinylated peptide, highly sulfated HS, 4PL fit, n = 4
From the text: (§1) One exemplar GAG from the groups of heparin, HS, CS-AC, and CS-D was chosen to assess the Ec50 (concentration at the midpoint of binding). Bound peptide fluorescence was plotted against the concentration of peptide and a sigmoidal 4PL binding curve fit to the data (Figure 6). For GAGs with high peptide binding (heparin, HS, and highly sulfated CS-D), Ec50 calculations could be performed for both biotinylated p5+14 and p5R (Figure 6A,C,D). […] The differential binding potency, despite the shared selectivity, is likely due to the higher net charge on p5+14 (+12) compared with p5R (+8).
(§2) Glycosaminoglycan (GAG) microarray binding studies were performed by Z Biotech (Z Biotech, LLC, Aurora, CO, USA). Briefly, microarrays were laid out in a 16-subarray arrangement with 47 GAG or 24 heparan sulfate (HS) binding targets per subarray. […] The fluorescence emission was quantified by scanning at 532 nm and evaluated using Mapix microarray software (Innopsys, Carbonne, France). […]
(§3) Data visualization, statistical analysis, and correlations were performed using GraphPad Prism v 9.4.1 or later. […] Apparent affinities (Ec50) of peptides to array substrates were calculated using sigmoidal 4PL curve fitting to calculate the Ec50 in µg/mL, which was converted to molarity using the appropriate peptide molecular weight.

[4] = PET/CT imaging of patients with systemic amyloidosis; assay type: in vivo, human; settings: PET/CT at 5 h post injection
Description: Patients were imaged with p5+14 as part of the first-in-human, open label, Phase 1 study (NCT03678259). Synthesis of ^124I-labeled p5+14 has previously been reported. Briefly, lyophilized human grade peptide (Attralus, Inc., Naples, FL, USA) was radiolabeled on the day of use with iodine-124 (3D Imaging, Little Rock, AR, USA) using iodogen as the oxidant. Subjects were administered a 2 mCi dose of I-124 (<2 mg of peptide) intravenously. PET/CT images were acquired from crown to thighs at 5 h post injection, using a Siemens Biograph PET/CT (Siemens Healthineers, Malvern, PA, USA) with 5 min bed positions for the PET and a low dose CT (120 kVp, 50 effective mAs).
Data were reconstructed using a 3-dimensional ordered subset expectation maximization algorithm with attenuation and prompt gamma corrections, a 168 × 168 image matrix, and an image resolution of ~8 mm full width at half maximum. CT reconstruction utilized a medium smoothing kernel and 4 mm reconstruction increments. Patient PET/CT images were generated using Inveon Research Workplace software (Ed. 4.2 [4.2.0.15]; Siemens Preclinical Solutions).

[5] = Heparan sulfate microarray binding (24 HS); settings: biotinylated peptide; 0.4, 2, 10 µg/mL; n = 6
Description: This array comprised 24 structurally unique synthetic HS domains that varied in length, net charge, and charge density (Supplementary Figure S3). The binding of biotinylated peptides p5+14 (Figure 7A) and p5R (Figure 7B) to the HS array was performed as above, using increasing concentrations of peptide. The intensity of binding for both peptides, based on the fluorescence intensity, was closely related to the total charge (total sulfations) of the ligand (Figure 7, shown in red).
(§4) Glycosaminoglycan (GAG) microarray binding studies were performed by Z Biotech (Z Biotech, LLC, Aurora, CO, USA). Briefly, microarrays were laid out in a 16-subarray arrangement with 47 GAG or 24 heparan sulfate (HS) binding targets per subarray. Spotted arrays were blocked at room temperature (RT) for 30 min with Glycan Array Blocking Buffer (Z Biotech, LLC, Aurora, CO, USA) before being washed. […] The fluorescence emission was quantified by scanning at 532 nm and evaluated using Mapix microarray software (Innopsys, Carbonne, France). […]
as §3

[6] = GAG array apparent EC50, CS-AC (GAG22); assay type: binding; settings: biotinylated peptide, n = 4
From the text: as §1
(§5) Glycosaminoglycan (GAG) microarray binding studies were performed by Z Biotech (Z Biotech, LLC, Aurora, CO, USA). Briefly, microarrays were laid out in a 16-subarray arrangement with 47 GAG or 24 heparan sulfate (HS) binding targets per subarray. Spotted arrays were blocked at room temperature (RT) for 30 min with Glycan Array Blocking Buffer (Z Biotech, LLC, Aurora, CO, USA) before being washed. Biotinylated peptides were diluted in blocking buffer + 1% bovine serum albumin to final concentrations of 50, 10, 2, 0.4, and 0.08 µg/mL and the solutions added to the arrays for 1 h at RT. The arrays were then washed again and streptavidin-Cy3 (0.2 µg/mL) added, followed by a 1-h incubation. The fluorescence emission was quantified by scanning at 532 nm and evaluated using Mapix microarray software (Innopsys, Carbonne, France). Background control data were subtracted from binding signals before the data were averaged.
(§6) Data visualization, statistical analysis, and correlations were performed using GraphPad Prism v 9.4.1 or later. Correlations of peptide binding to microarray substrates were performed using Pearson’s correlations. Apparent affinities (Ec50) of peptides to array substrates were calculated using sigmoidal 4PL curve fitting to calculate the Ec50 in µg/mL, which was converted to molarity using the appropriate peptide molecular weight.

[7] = GAG microarray binding (47 GAGs); settings: biotinylated peptide
Description: To assess the binding selectivity of biotinylated p5+14 and p5R peptides, we used a commercial glycosaminoglycan (GAG) binding microarray (ZBiotech, CO, USA), which contains 16 subarrays each consisting of 47 differing GAGs (varying lengths, charges, and composition (Supplementary Figure S1)) plus internal controls. Increasing concentrations of each peptide were evaluated on the subarrays. The GAG arrays consisted of exemplar hyaluronic acid (HA), heparin, chondroitin sulfate A/C (CS-AC), chondroitin sulfate D (CS-D), dermatan sulfate (DS), heparan sulfate (HS with low to intermediate sulfation levels), heparan sulfate (HS with high sulfation levels), and […] (KS). Background corrected binding of peptides p5+14 and p5R, at 2 µg/mL, to each GAG is shown in Figure 4A,B (additional concentrations are shown in Supplementary Figure S2). […] For heparin and highly sulfated HS, the binding intensity closely paralleled the total negative charge for each GAG (Figure 4C).
as §5, with “The arrays were then washed again and streptavidin-Cy3 (0.2 µg/mL) added, followed by a 1-h incubation.” left out, “Background control data were subtracted from binding signals before the data were averaged.” left out
as §3

[8] = GAG array apparent EC50, CS-D (GAG28); assay type: binding; settings: biotinylated peptide
From the text: as §1, §5, §6

[9] = Circular dichroism secondary structure; assay type: physicochemical
Description: Peptide secondary structures were analyzed by circular dichroism using an Olis RSM 1000 (On-line Instrument Systems, Inc., Bogart, GA, USA). Each study consisted of three replicates that were averaged and the dilution/background spectra subtracted. Non-biotinylated peptides were diluted to 0.05 mg/mL in phosphate buffered saline (PBS). For experiments involving the addition of enoxaparin (Amphastar Pharmaceuticals Inc., Rancho Cucamonga, CA., USA), enoxaparin was added to diluted peptide in PBS to reach a final concentration of 0–66.7 µg/mL. For experiments involving the addition of 2,2,2-trifluoroethanol (TFE) (Thermo Fisher Scientific, Waltham, MA, USA), TFE was added to diluted peptide in PBS to reach a final concentration of 0–40%.

[10] = HS array apparent Ec50, HS24; assay type: binding; settings: biotinylated peptide, 4PL fit, n = 6
Description: (§7) Biotinylated peptide binding to four of the HS glycans in the array were analyzed further to assess the estimated binding potency (Figure 9). […] The HS glycans used in this binding analysis contained fewer saccharide units and less total charge compared with that shown in Figure 6D, which may explain the difference in the estimated potency data.
as §4, §3

[11] = HS array apparent Ec50, HS13; assay type: binding; settings: biotinylated peptide; increasing peptide concentration; n = 6
Description: as §7, §4, §3

[12] = HS array apparent Ec50, HS16; assay type: binding; settings: biotinylated peptide, 4PL fit, n = 6
Description: as §7, §4, §3

[13] = GAG array apparent EC50, heparin (GAG16); assay type: binding; settings: biotinylated peptide, 1 h RT, n = 4
From the text: as §1, §2, §3

[14] = HS array apparent Ec50, HS22; assay type: binding; settings: biotinylated peptide, 4PL fit, n = 6
Description: as §7, §4, §3

[15] = cited from earlier work; remark: listed apart in the source
From the text: Both peptides consist of a repeating heptad structure with periodic lysine (p5+14; -XXKXXXK-) or arginine (p5R; -XXRXXXR-) amino acids. […] These peptides also avidly bind other highly negatively charged linear molecules such as heparin and hypersulfated HSPG, the latter of which is associated with amyloid deposits in vivo [18, 20, 21, 22].

[16] = initial spectrum, non-biotinylated peptide 0.05 mg/mL in PBS, n = 3
[17] = HS array in blocking buffer + 1% BSA, 1 h RT, streptavidin-Cy3, 532 nm, read-out: Apparent Ec50
[18] = converted from µg/mL using peptide molecular weight, read-out: Apparent Ec50 (Molarity)

Nc1c(/N=N/c2ccc(-c3ccc(/N=N/c4cc(S(=O)(=O)O)c5ccccc5c4N)cc3)cc2)cc(S(=O)(=O)O)c2ccccc12 [Congo red]
Amyloid binding [1]: bind all types of amyloid but not in a specific way

O=C(O)[C@H]1CCCN1C(=O)CCCCC(=O)N1CCC[C@@H]1C(=O)O [miridesap]
Removal of amyloid in patients [2]: failed to promote the meaningful removal of amyloid in patients

Cc1ccc2c(c1)sc(-c1ccc(N(C)C)cc1)[n+]2C [thioflavin T]
Amyloid binding [1]: bind all types of amyloid but not in a specific way

GGGYSKAQKAQAKQAKQAQKAQKAQAKQAKQAQKAQKAQAKQAKQ [p5+14, 45-residue polybasic lysine heptad-repeat peptide, net charge +12]
EC50 ([3]; array in blocking buffer + 1% BSA, 0.08-50 µg/mL, 1 h RT, streptavidin-Cy3, 532 nm, read-out: Apparent EC50): 0.932 mg/L
pEC50 ([3]; converted from µg/mL using peptide molecular weight, read-out: Apparent EC50 (Molarity)): 6.71
Organ uptake in patients ([4]; 2 mCi (<2 mg of peptide) i.v., patients with systemic amyloidosis): consistent with uptake in organs and tissues clinically known or suspected of amyloid deposition
Organ uptake in healthy subjects ([4]; 2 mCi i.v., healthy subjects): no pathologic uptake was observed
HS binding pattern [5]: the binding to HS appeared to correlate precisely with the total charge of the HS
EC50 ([6]; array in blocking buffer + 1% BSA, 0.08-50 µg/mL, 1 h RT, streptavidin-Cy3, 532 nm, 4PL fit, read-out: Apparent EC50): 3.38 mg/L
pEC50 ([6]; converted from µg/mL using peptide molecular weight, 1 h RT, 4PL fit, read-out: Apparent EC50 (Molarity)): 6.15
Binding to CS-AC ([6]; fluorescence au vs peptide concentration): saturable binding
GAG binding selectivity ([7]; 2 µg/mL, background corrected fluorescence, n = 4): preferential binding to heparin and highly sulfated HS GAGs; also recorded: Little to no binding to HA, CS-AC, CS-D (with singular exception), DS, and KS
Binding to GAGs that were not heparin or HS ([7]; 2 µg/mL, n = 4): very little binding
Affinity for heparin and HS immobilized in the arrays ([7]; compared with biotinylated p5R, GAG and HS arrays): higher affinity for both heparin and HS immobilized in the arrays
Reactivity with CS-D GAGs ([8]; GAG28 compared with GAG23-GAG27): abrupt intense reactivity of the peptides with GAG28, but none of the other CS GAGs (GAG23-GAG27)
EC50 ([8]; array in blocking buffer + 1% BSA, 0.08-50 µg/mL, 1 h RT, streptavidin-Cy3, 532 nm, 4PL fit, n = 4, read-out: Apparent EC50): 1.33 mg/L
pEC50 ([8]; converted from µg/mL using peptide molecular weight, 1 h RT, 4PL fit, n = 4, read-out: Apparent EC50 (Molarity)): 6.55
Secondary structure in solution ([9]; PBS pH 7.2): partially unfolded states in solution
Secondary structure with low molecular weight heparin ([9]; in PBS with enoxaparin): adopt an α-helical structure
CD large minimum [9, 16]: 208 nm
CD smaller minimum [9, 16]: 222 nm
Ratio of the CD minima with enoxaparin ([9]; non-biotinylated peptide 0.05 mg/mL in PBS, higher concentrations of enoxaparin (0-66.7 µg/mL), n = 3): ≥ 1
Ratio of the CD minima with TFE ([9]; non-biotinylated peptide 0.05 mg/mL in PBS, increasing TFE (0-40%), n = 3): ≥ 1
EC50 [10, 17]: 0.448 mg/L
pEC50 [10, 18]: 7.03
Binding to HS13 [11]: did not reach saturation
EC50 [12, 17]: 0.668 mg/L
pEC50 [12, 18]: 6.85
EC50 ([13]; array in blocking buffer + 1% BSA, 0.08-50 µg/mL, streptavidin-Cy3, 532 nm, sigmoidal 4PL fit, read-out: Apparent EC50): 1.2 mg/L
pEC50 ([13]; converted from µg/mL using peptide molecular weight, 4PL fit, read-out: Apparent EC50 (Molarity)): 6.60
EC50 [14, 17]: 0.473 mg/L
pEC50 [14, 18]: 7.00

GGGYSRAQRAQARQARQAQRAQRAQARQARQ [p5R]
In vivo biodistribution vs basic fibroblast growth factor ([15]; ^125I-labeled): differed dramatically from that of the quintessential HSPG binding protein, basic fibroblast growth factor

bFGF: prototypical HS binding peptide [reference compound]
Binding in healthy tissues ([15]; healthy liver tissue and renal glomerulae): strong reactivity with healthy liver tissue and renal glomerulae

serum amyloid P-component: biological reagent that exhibits pan-amyloid reactivity
Amyloid binding [1]: exhibit pan-amyloid reactivity
